Data taken from patent US20230364102A1, “COMPOSITIONS AND METHODS FOR THE TREATMENT OF NEUROLOGICAL DISORDERS” (Duke University, priority 2020, published 2023).

Assays:
[1] = test system: primary rat midbrain neurons; assay: Rotenone-induced mtDNA damage in primary midbrain neurons; assay type: cell-based; conditions: pre-treated for 24 h before rotenone
Procedure: (§1) This example describes how mitochondrial DNA damage was measured using a quantitative PCR-based assay as described above. The following reagents and protocol steps as disclosed in Sanders et al., Curr Protoc Toxicol. 2018 May; 76(1): e50, doi: 10.1002/cptx.50 and also in U.S. Pat. No. 11,001,890. The entire contents of said publication and patent are herein incorporated by reference.
(§2) Make a master mix if several samples are being run simultaneously. […]
(§3) Perform the PCR reaction using the PCR amplification profile is as follows for the large mitochondrial PCR product using the KAPA LongRange Hot Start kit: • Melting: 94° C. for 3 min • Amplification: the optimized number of cycles (26-28) of melting (94° C. for 15 sec) and annealing (66° C. for 12 min). • Final extension: To complete the profile and finalize amplification of products, perform a final extension for 10 min at 72° C. • Holding: Hold at 4° C. until products are removed for quantification. […]
(§4) (1) Add 10 μL of each PCR product and 90 μL of TE buffer to each of triplicate wells. […] Follow steps 6, 7 and 8 in Support Protocol 2 for fluorescent quantification of DNA.
(§5) Normalize large mitochondrial PCR product fluorescence values for copy number differences using the small mitochondrial PCR product. […] This is the normalized large mitochondrial fluorescence value (A. M. Furda, Bess, Meyer, & Van Houten, 2012a). […]

[2] = test system: human LRRK2 G2019S or GFP expressing neuronal cultures; assay: QPCR-based mtDNA damage assay in primary midbrain neuronal cultures expressing human LRRK2 G2019S; assay type: cell-based; conditions: treated for 6 h
Excerpt: Divide the normalized fluorescence values of each sample by the average normalized fluorescence value to get a ratio. […]

[3] = test system: LRRK2 G2019S patient-derived cells; assay: mtDNA damage in LRRK2 G2019S patient-derived cells; assay type: cell-based, human; conditions: 24 h, 1 μM, n=3
Procedure: as §1, §2, §3, §4, §5

ATM pSer1981 [4] = conditions: following treatment with the neurotoxin; cited from earlier work
ATM pSer1981 [5] = assay: Western blot of ATM pSer1981 in HEK293 cells; assay type: cell-based, human; conditions: 100 nM, 24 h vs vehicle

SMILES: CCNc1nc(Nc2cc(F)c(C(=O)N3CCOCC3)cc2OC)ncc1C(F)(F)F [GNE-7915]
- prevention of rotenone induced mtDNA damage [1]: able to prevent rotenone induced mtDNA damage
- mtDNA damage (mtDNA integrity) [2]: restored mtDNA integrity

SMILES: C[C@@H]1CN(CC(=O)Nc2ccc3c(c2)Cc2cccc(-c4cc(=O)cc(N5CCOCC5)o4)c2S3)C[C@H](C)O1 [KU60019]
- mtDNA damage [3]: sufficient to reverse mtDNA damage

SMILES: C[n+]1ccc(-c2ccccc2)cc1 [MPP+]
- expression of ATM pSer1981 (ATM pSer1981 [4]): increased

SMILES: C=C(C)[C@H]1Cc2c(ccc3c2O[C@@H]2COc4cc(OC)c(OC)cc4[C@@H]2C3=O)O1 [rotenone]
- ATM pSer1981 (kinase active) level (ATM pSer1981 [5]): increased ATM pSer1981 levels
- ATM pSer1981 (kinase active) level (ATM pSer1981 [5]; listed as Rotenone): increased levels of ATM pSer1981
